{"source": "ChEMBL document CHEMBL2417546", "about": "“Antitrypanosomal triterpenoid with an ε-lactone E-ring from Salvia urmiensis” (J Nat Prod, 2013)", "key": {"[1]": {"assay": "Selectivity index, ratio of IC50 for rat L6 cells to IC50 for bloodstream form of Trypanosoma brucei rhodesiense STIB 900", "format": "toxicity, cell-based", "conditions": "read-out: Ratio IC50"}, "L6": {"test_system": "L6", "assay": "Cytotoxicity against rat L6 cells by Alamar Blue assay", "format": "cell-based"}, "[2]": {"test_system": "Trypanosoma brucei rhodesiense", "assay": "Antitrypanosomal activity against bloodstream form of Trypanosoma brucei rhodesiense STIB 900 by Alamar Blue assay", "format": "functional, organism-based"}}, "note": "pIC50: −log10 of the molar value.", "data": [{"smiles": "C[C@H]1[C@H](C)CC(=O)O[C@]2(C)CC[C@]3(C)C(=C[C@@H](O)[C@@H]4[C@@]5(C)[C@H](O)CC(=O)C(C)(C)[C@@H]5CC[C@]43C)[C@H]12", "values": [{"measurement": "selectivity ratio", "setting": "[1]", "result": 33.1}, {"measurement": "pIC50", "setting": "L6", "result": "< 3.73"}, {"measurement": "pIC50", "setting": "[2]", "result": 5.25}]}]}
